The assay has as its target VEGFR-2 kinase (Homo sapiens (Human), UniProt P35968). The experiment in a line: Test of small molecule compounds for inhibiting the activity of VEGFR-2 kinase. In kind it is biochemical. Particulars: class symbols A-D. The method, then:
Test of Small Molecule Compounds for Inhibiting the Activity of VEGFR-2 Kinase
The test was carried out as follows:
2. 2.5 μl of the gradient-diluted compounds was taken with a transfer pipette to a 384-well plate,
3. Addition of enzyme: 5 μl of 2×VEGFR-2 kinase was taken with a transfer pipette to the corresponding reaction well of the 384-well plate, which was mixed and pre-reacted at room temperature for 30 min,
5. Negative control: 2.5 μl/well 4× substrate/ATP Mix and 7.5 μl 1× Kinase Assay Buffer were added to the wells of the 384-well plate,
Positive control: 2.5 μl/well 4× substrate/ATP Mix, 2.5 μl/well 1× Kinase Assay Buffer containing 4% DMSO, and 5 μl/well 2×VEGFR-2 solution were added to the 384-well plate. The final concentration of DMSO in the reaction system is […],
6. The mixture was mixed well and then centrifuged and reacted at room temperature in dark for 60 min,
9. The 384-well plate was placed into the Envision plate reader and the signal was detected using the appropriate program,
Chain of VEGFR-2 kinase (P35968 20-1356): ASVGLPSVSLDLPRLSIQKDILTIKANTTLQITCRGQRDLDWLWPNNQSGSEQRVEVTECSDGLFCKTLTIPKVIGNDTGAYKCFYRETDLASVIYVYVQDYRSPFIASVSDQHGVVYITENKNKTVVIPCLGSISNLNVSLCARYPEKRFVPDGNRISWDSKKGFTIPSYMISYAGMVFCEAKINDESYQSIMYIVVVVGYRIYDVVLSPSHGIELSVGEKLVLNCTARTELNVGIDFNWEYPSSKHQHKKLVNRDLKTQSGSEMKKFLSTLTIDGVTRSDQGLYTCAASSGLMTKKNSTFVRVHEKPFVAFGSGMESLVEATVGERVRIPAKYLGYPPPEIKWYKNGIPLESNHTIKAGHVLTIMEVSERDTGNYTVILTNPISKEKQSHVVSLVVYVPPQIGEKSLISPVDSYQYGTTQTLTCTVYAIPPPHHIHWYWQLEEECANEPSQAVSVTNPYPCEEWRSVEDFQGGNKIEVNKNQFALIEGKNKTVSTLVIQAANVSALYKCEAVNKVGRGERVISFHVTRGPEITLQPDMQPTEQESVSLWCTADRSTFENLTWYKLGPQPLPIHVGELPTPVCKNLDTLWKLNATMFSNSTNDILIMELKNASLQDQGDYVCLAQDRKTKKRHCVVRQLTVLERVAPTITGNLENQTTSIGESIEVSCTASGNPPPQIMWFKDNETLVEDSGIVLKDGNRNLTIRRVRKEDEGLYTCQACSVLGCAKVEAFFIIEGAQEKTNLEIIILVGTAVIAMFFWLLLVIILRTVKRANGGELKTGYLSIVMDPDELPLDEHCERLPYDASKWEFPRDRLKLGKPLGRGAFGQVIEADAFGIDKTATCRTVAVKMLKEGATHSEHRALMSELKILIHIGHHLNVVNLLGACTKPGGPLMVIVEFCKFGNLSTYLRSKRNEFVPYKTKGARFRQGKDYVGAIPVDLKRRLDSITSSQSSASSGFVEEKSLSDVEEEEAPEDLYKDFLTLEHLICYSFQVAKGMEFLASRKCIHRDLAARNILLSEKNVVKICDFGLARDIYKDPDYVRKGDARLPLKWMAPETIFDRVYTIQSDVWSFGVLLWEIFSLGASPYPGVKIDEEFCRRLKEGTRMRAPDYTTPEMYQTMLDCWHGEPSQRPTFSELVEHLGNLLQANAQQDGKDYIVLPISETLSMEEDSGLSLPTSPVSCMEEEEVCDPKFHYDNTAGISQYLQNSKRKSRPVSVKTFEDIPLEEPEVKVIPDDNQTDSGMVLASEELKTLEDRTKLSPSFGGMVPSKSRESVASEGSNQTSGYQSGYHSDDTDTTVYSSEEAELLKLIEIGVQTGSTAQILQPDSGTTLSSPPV
One may read the IC50 as the concentration at which inhibition is half-maximal. With `CSCCOc1cc2ncnc(Nc3ccc(NC(=O)NC4CC4)c(Cl)c3)c2c2c1OCCO2` [Example 84, 1-(2-chloro-4-((5-(2-methylthioethoxy)-2,3-dihydro-[1,4]dioxino[2,3-f]quinazolin-10-yl)amino)phenyl)-3-cyclopropylurea], the IC50 was less than 50 nM.

`COCCOc1cc2ncnc(Oc3ccc(NC(=O)NC4CCCC4)c(Cl)c3)c2c2c1OCCO2` [Example 55, 1-(2-chloro-4-((5-(2-methoxyethoxy)-2,3-dihydro-[1,4]dioxino[2,3-f]quinazolin-10-yl)oxy)phenyl)-3-cyclopentylurea] showed an IC50 of less than 50 nM.

`COc1cc2ncnc(Oc3ccc(NC(=O)NC(C)C)c(Cl)c3)c2c2c1OCCO2` [Example 15, 1-(2-chloro-4-((5-methoxy-2,3-dihydro-[1,4]dioxino[2,3-f]quinazolin-10-yl)oxy)phenyl)-3-isopropylurea] came in with an IC50 of less than 50 nM.

Compound `COCCOc1cc2ncnc(Nc3ccc(NC(=O)Nc4cccc(OC)c4)c(Cl)c3)c2c2c1OCCO2` [Example 35, 1-(2-chloro-4-((5-(2-methoxyethoxy)-2,3-dihydro-[1,4]dioxino[2,3-f]quinazolin-10-yl)amino)phenyl)-3-(3-methoxyphenyl)urea] showed an IC50 of less than 50 nM.

In turn, `COc1cc2nccc(Oc3ccc(NC(=O)Nc4ccc(Cl)c(C(F)(F)F)c4)cc3)c2c2c1OCCO2` [Example 90, 1-(4-chloro-3-(trifluoromethyl)phenyl)-3-(4-((5-methoxy-2,3-dihydro-[1,4]dioxino[2,3-f]quinolin-10-yl)oxy)phenyl)urea] displayed a concentration for half-maximal inhibition (IC50) of less than 50 nM.

Regarding `O=C(Nc1ccc(Nc2ncnc3cc(OCCCN4CCCC4)c4c(c23)OCCO4)cc1Cl)NC1CC1` [Example 61, 1-(2-chloro-4-((5-(3-(pyrrolidin-1-yl)propoxy)-2,3-dihydro-[1,4]dioxino[2,3-f]quinazolin-10-yl)amino)phenyl)-3-cyclopropylurea], the IC50 was less than 50 nM.

For the compound `COCCOc1cc2ncnc(Nc3ccc(NC(=O)Nc4ccccn4)c(Cl)c3)c2c2c1OCCO2` [Example 36, 1-(2-chloro-4-((5-(2-methoxyethoxy)-2,3-dihydro-[1,4]dioxino[2,3-f]quinazolin-10-yl)amino)phenyl)-3-(pyridin-2-yl)urea], the IC50 is more than 5000 nM.

With `COc1cc2ncnc(Nc3ccc(NC(=O)Nc4ccc(Oc5ccccc5)cc4)c(Cl)c3)c2c2c1OCCO2` [Example 13, 1-(2-chloro-4-((5-methoxy-2,3-dihydro-[1,4]dioxino[2,3-f]quinazolin-10-yl)amino)phenyl)-3-(4-(phenoxy)phenyl)urea], the IC50 is more than 5000 nM.

On to `COCCOc1cc2ncnc(Nc3ccc(NC(=O)NC(C)C)c(Cl)c3)c2c2c1OCCO2` [Example 40, 1-(2-chloro-4-((5-(2-methoxyethoxy)-2,3-dihydro-[1,4]dioxino[2,3-f]quinazolin-10-yl)amino)phenyl)-3-isopropylurea], for which the IC50 lay in the range of 50 to 500 nM.

The compound `COCCOc1cc2ncnc(Oc3ccc(NC(=O)NC4CCC4)c(Cl)c3)c2c2c1OCCO2` [Example 54, 1-(2-chloro-4-((5-(2-methoxyethoxy)-2,3-dihydro-[1,4]dioxino[2,3-f]quinazolin-10-yl)oxy)phenyl)-3-cyclobutylurea] had an IC50 of less than 50 nM.

Consider `COCCOc1cc2ncnc(Oc3ccc(NC(=O)NC4CCCCC4)c(Cl)c3)c2c2c1OCCO2` [Example 56, 1-(2-chloro-4-((5-(2-methoxyethoxy)-2,3-dihydro-[1,4]dioxino[2,3-f]quinazolin-10-yl)oxy)phenyl)-3-cyclohexylurea], for which the IC50 was less than 50 nM.

Compound `COCCOc1cc2ncnc(Nc3ccc(NC(=O)Nc4ccnc(OC)c4)c(Cl)c3)c2c2c1OCCO2` [Example 41, 1-(2-chloro-4-((5-(2-methoxyethoxy)-2,3-dihydro-[1,4]dioxino[2,3-f]quinazolin-10-yl)amino)phenyl)-3-(2-methoxypyridin-4-yl)urea] returned an IC50 of less than 50 nM.

With `O=C(Nc1ccc(Oc2ncnc3cc(OC4CCOC4)c4c(c23)OCCO4)cc1)Nc1cc(C(F)(F)F)ccc1F` (centres unmarked) [Example 80, 1-(2-fluoro-5-(trifluoromethyl)phenyl)-3-(4-((5-((tetrahydrofuran-3-yl)oxy)-2,3-dihydro-[1,4]dioxino[2,3-f]quinazolin-10-yl)oxy)phenyl)urea], the IC50 is less than 50 nM.

Consider `COc1cc2ncnc(Nc3ccc(NC(=O)NC4CCCC4)c(Cl)c3)c2c2c1OCCO2` [Example 28, 1-(2-chloro-4-((5-methoxy-2,3-dihydro-[1,4]dioxino[2,3-f]quinazolin-10-yl)amino)phenyl)-3-cyclopentylurea], for which the IC50 was 50 to 500 nM.

Turning to `COc1cc2ncnc(Oc3ccc(NC(=O)NC4CCCCC4)c(Cl)c3)c2c2c1OCCO2` [Example 33, 1-(2-chloro-4-((5-methoxy-2,3-dihydro-[1,4]dioxino[2,3-f]quinazolin-10-yl)oxy)phenyl)-3-cyclohexylurea], the half-inhibitory concentration (IC50) was less than 50 nM.

On to `COCCOc1cc2ncnc(Nc3ccc(NC(=O)Nc4ccc(Oc5ccccc5)cc4)c(Cl)c3)c2c2c1OCCO2` [Example 44, 1-(2-chloro-4-((5-(2-methoxyethoxy)-2,3-dihydro-[1,4]dioxino[2,3-f]quinazolin-10-yl)amino)phenyl)-3-(4-(phenoxy)phenyl)urea], for which the IC50 was more than 5000 nM.

On to `COCCOc1cc2ncnc(Oc3ccc(NC(=O)Nc4ccc(Cl)c(C(F)(F)F)c4)cc3F)c2c2c1OCCO2` [Example 59, 1-(4-chloro-3-(trifluoromethyl)phenyl)-3-(3-fluoro-4-((5-(2-methoxyethoxy)-2,3-dihydro-[1,4]dioxino[2,3-f]quinazolin-10-yl)oxy)phenyl)urea], for which the IC50 was less than 50 nM.

For the compound `CN(C)CCCOc1cc2ncnc(Nc3ccc(NC(=O)NC4CC4)c(Cl)c3)c2c2c1OCCO2` [Example 82, 1-(2-chloro-4-((5-(3-(dimethylamino)propoxy)-2,3-dihydro-[1,4]dioxino[2,3-f]quinazolin-10-yl)amino)phenyl)-3-cyclopropylurea], the IC50 is less than 50 nM.

In the case of `COCCOc1cc2ncnc(Nc3ccc(NC(=O)Nc4ccc(F)cc4)c(Cl)c3)c2c2c1OCCO2` [Example 38, 1-(2-chloro-4-((5-(2-methoxyethoxy)-2,3-dihydro-[1,4]dioxino[2,3-f]quinazolin-10-yl)amino)phenyl)-3-(4-fluorophenyl)urea], the IC50 was less than 50 nM.

In turn, `COc1cc2ncnc(Nc3ccc(NC(=O)NCCC(C)C)c(Cl)c3)c2c2c1OCCO2` [Example 30, 1-(2-chloro-4-((5-methoxy-2,3-dihydro-[1,4]dioxino[2,3-f]quinazolin-10-yl)amino)phenyl)-3-isopentylurea] came in with an IC50 of less than 50 nM.

`O=C(Nc1ccc(Oc2ncnc3cc(OCCCN4CCOCC4)c4c(c23)OCCO4)cc1)Nc1cc(Cl)ccc1F` [Example 89, 1-(2-fluoro-5-chlorophenyl)-3-(4-((5-(3-morpholinopropoxy)-2,3-dihydro-[1,4]dioxino[2,3-f]quinazolin-10-yl)oxy)phenyl)urea] gave an IC50 of less than 50 nM.

For the compound `COc1cc2ncnc(Oc3ccc(NC(=O)NC4CC4)c(Cl)c3)c2c2c1OCCO2` [Example 22, 1-(2-chloro-4-((5-methoxy-2,3-dihydro-[1,4]dioxino[2,3-f]quinazolin-10-yl)oxy)phenyl)-3-cyclopropylurea], the half-maximal inhibitory concentration (IC50) is less than 50 nM.

`COc1cc2ncnc(Nc3ccc(NC(=O)NC4CCCCC4)c(Cl)c3)c2c2c1OCCO2` [Example 29, 1-(2-chloro-4-((5-methoxy-2,3-dihydro-[1,4]dioxino[2,3-f]quinazolin-10-yl)amino)phenyl)-3-cyclohexylurea] had a 50% inhibitory concentration (IC50) of 500 to 5000 nM.

Compound `COCCCOc1cc2ncnc(Oc3ccc(NC(=O)NC4CC4)c(Cl)c3)c2c2c1OCCO2` [Example 86, 1-(2-chloro-4-(((5-(3-methoxy)propoxy)-2,3-dihydro-[1,4]dioxino[2,3-f]quinazolin-10-yl)oxy)phenyl)-3-cyclopropylurea] had an IC50 of less than 50 nM.

With `COc1cc(NC(=O)Nc2ccc(Nc3ncnc4cc(OC)c5c(c34)OCCO5)cc2Cl)ccn1` [Example 10, 1-(2-chloro-4-((5-methoxy-2,3-dihydro-[1,4]dioxino[2,3-f]quinazolin-10-yl)amino)phenyl)-3-(2-methoxypyridin-4-yl)urea], the 50% inhibitory concentration (IC50) was less than 50 nM.

`COc1cc2ncnc(Oc3ccc(NC(=O)Nc4ccc(F)cc4F)c(F)c3)c2c2c1OCCO2` [Example 21, 1-(2,4-difluorophenyl)-3-(2-fluoro-4-((5-methoxy-2,3-dihydro-[1,4]dioxino[2,3-f]quinazolin-10-yl)oxy)phenyl)urea] came in with an IC50 of less than 50 nM.

Compound `O=C(Nc1ccc(Oc2ncnc3cc(OCCCN4CCOCC4)c4c(c23)OCCO4)cc1)Nc1cccc2ccccc12` [Example 31, 1-(4-((5-(3-morpholinopropoxy)-2,3-dihydro-[1,4]dioxino[2,3-f]quinazolin-10-yl)oxy)phenyl)-3-(naphthalen-1-yl)urea] gave an IC50 of less than 50 nM.

In turn, `COCCOc1cc2ncnc(Oc3ccc(NC(=O)Nc4ccc(Cl)c(C(F)(F)F)c4)cn3)c2c2c1OCCO2` [Example 60, 1-(4-chloro-3-(trifluoromethyl)phenyl)-3-(6-((5-(2-methoxyethoxy)-2,3-dihydro-[1,4]dioxino[2,3-f]quinazolin-10-yl)oxy)pyridin-3-yl)urea] yielded an IC50 of 50 to 500 nM.

The compound `COc1cc2ncnc(Nc3ccc(NC(=O)NC4CC4)c(Cl)c3)c2c2c1OCCO2` [Example 2, 1-(2-chloro-4-((5-methoxy-2,3-dihydro-[1,4]dioxino[2,3-f]quinazolin-10-yl)amino)phenyl)-3-cyclopropylurea] returned an IC50 of less than 50 nM.

These data come from patent US10980809B2, “Urea-substituted aromatic ring-linked dioxane-quinazoline and -linked dioxane-quinoline compounds, preparation method therefor and use thereof” (BEIJING SCITECH-MQ PHARMACEUTICALS LIMITED, priority 2017, dated 2021).
